Data from US20260284201A1, “COMPOSITIONS AND METHODS FOR TREATING TENDON AND BONE INJURIES” (The United States Government as represented by the …, priority 2023, published 2026).

Tests used:
[1] = system: canine tendon-to-bone healing; conditions: cited from earlier work
[2] = system: osteoclasts; conditions: cited from earlier work
[3] = system: osteoporotic rats; conditions: cited from earlier work
[4] = system: rat rotator cuff repairs; conditions: cited from earlier work
[5] = system: osteoporotic mouse model; conditions: 1.25 mg/kg intravenously; cited from earlier work
[6] = system: mice in space; test: Bone volume among mice in space (unpublished data); type: in vivo; conditions: 10 mg/kg once per week
[7] = system: fracture healing; conditions: 1.25 mg/kg systemically once per week; cited from earlier work

NCCCC(O)(P(=O)(O)O)P(=O)(O)O [alendronate]
incidence of suture pull through tendon [1]: lower incidence of suture pull through tendon | ultimate load to failure [1]: improved ultimate load to failure

CC(O)(P(=O)(O)O)P(=O)(O)O [etidronate]
inhibition of the function of osteoclasts [2]: do not inhibit the function of osteoclasts

O=P(O)(O)C(O)(Cc1cccnc1)P(=O)(O)O [risedronate]
rotator cuff healing [3]: beneficial to rotator cuff healing

O=P(O)(O)C(O)(Cn1ccnc1)P(=O)(O)O [zolendronate]
tendon-to-bone healing [4]: negative effects on tendon-to-bone healing

methylhydroxyl diphosphonate
inhibition of the function of osteoclasts [2]: do not inhibit the function of osteoclasts

B1: rhNELL-1: recombinant human NELL-1 (protein, UniProt Q92832 22-810, looked up)
Protein kinase C-binding …: FGMDPDLQMDIVTELDLVNTTLGVAQVSGMHNASKAFLFQDIEREIHAAPHVSEKLIQLFRNKSEFTILATVQQKPSTSGVILSIRELEHSYFELESSGLRDEIRYHYIHNGKPRTEALPYRMADGQWHKVALSVSASHLLLHVDCNRIYERVIDPPDTNLPPGINLWLGQRNQKHGLFKGIIQDGKIIFMPNGYITQCPNLNHTCPTCSDFLSLVQGIMDLQELLAKMTAKLNYAETRLSQLENCHCEKTCQVSGLLYRDQDSWVDGDHCRNCTCKSGAVECRRMSCPPLNCSPDSLPVHIAGQCCKVCRPKCIYGGKVLAEGQRILTKSCRECRGGVLVKITEMCPPLNCSEKDHILPENQCCRVCRGHNFCAEGPKCGENSECKNWNTKATCECKSGYISVQGDSAYCEDIDECAAKMHYCHANTVCVNLPGLYRCDCVPGYIRVDDFSCTEHDECGSGQHNCDENAICTNTVQGHSCTCKPGYVGNGTICRAFCEEGCRYGGTCVAPNKCVCPSGFTGSHCEKDIDECSEGIIECHNHSRCVNLPGWYHCECRSGFHDDGTYSLSGESCIDIDECALRTHTCWNDSACINLAGGFDCLCPSGPSCSGDCPHEGGLKHNGQVWTLKEDRCSVCSCKDGKIFCRRTACDCQNPSADLFCCPECDTRVTSQCLDQNGHKLYRSGDNWTHSCQQCRCLEGEVDCWPLTCPNLSCEYTAILEGECCPRCVSDPCLADNITYDIRKTCLDSYGVSRLSGSVWTMAGSPCTTCKCKNGRVCCSVDFECLQNN
bone formation [5]: lead to bone formation

B2: BP-NELL-1-PEG: NELL-1-PEG covalently bound to BP molecules (conjugate, UniProt Q92832 22-810, looked up)
Protein kinase C-binding …: FGMDPDLQMDIVTELDLVNTTLGVAQVSGMHNASKAFLFQDIEREIHAAPHVSEKLIQLFRNKSEFTILATVQQKPSTSGVILSIRELEHSYFELESSGLRDEIRYHYIHNGKPRTEALPYRMADGQWHKVALSVSASHLLLHVDCNRIYERVIDPPDTNLPPGINLWLGQRNQKHGLFKGIIQDGKIIFMPNGYITQCPNLNHTCPTCSDFLSLVQGIMDLQELLAKMTAKLNYAETRLSQLENCHCEKTCQVSGLLYRDQDSWVDGDHCRNCTCKSGAVECRRMSCPPLNCSPDSLPVHIAGQCCKVCRPKCIYGGKVLAEGQRILTKSCRECRGGVLVKITEMCPPLNCSEKDHILPENQCCRVCRGHNFCAEGPKCGENSECKNWNTKATCECKSGYISVQGDSAYCEDIDECAAKMHYCHANTVCVNLPGLYRCDCVPGYIRVDDFSCTEHDECGSGQHNCDENAICTNTVQGHSCTCKPGYVGNGTICRAFCEEGCRYGGTCVAPNKCVCPSGFTGSHCEKDIDECSEGIIECHNHSRCVNLPGWYHCECRSGFHDDGTYSLSGESCIDIDECALRTHTCWNDSACINLAGGFDCLCPSGPSCSGDCPHEGGLKHNGQVWTLKEDRCSVCSCKDGKIFCRRTACDCQNPSADLFCCPECDTRVTSQCLDQNGHKLYRSGDNWTHSCQQCRCLEGEVDCWPLTCPNLSCEYTAILEGECCPRCVSDPCLADNITYDIRKTCLDSYGVSRLSGSVWTMAGSPCTTCKCKNGRVCCSVDFECLQNN
modifications: PEG; bisphosphonate conjugate
bone volume [6]: preserve bone volume

B3: NELL-1-PEG: chemically modified version of NELL-1 protein using polyethylene glycol (PEGylation) (protein, UniProt Q92832 22-810, looked up)
Protein kinase C-binding …: FGMDPDLQMDIVTELDLVNTTLGVAQVSGMHNASKAFLFQDIEREIHAAPHVSEKLIQLFRNKSEFTILATVQQKPSTSGVILSIRELEHSYFELESSGLRDEIRYHYIHNGKPRTEALPYRMADGQWHKVALSVSASHLLLHVDCNRIYERVIDPPDTNLPPGINLWLGQRNQKHGLFKGIIQDGKIIFMPNGYITQCPNLNHTCPTCSDFLSLVQGIMDLQELLAKMTAKLNYAETRLSQLENCHCEKTCQVSGLLYRDQDSWVDGDHCRNCTCKSGAVECRRMSCPPLNCSPDSLPVHIAGQCCKVCRPKCIYGGKVLAEGQRILTKSCRECRGGVLVKITEMCPPLNCSEKDHILPENQCCRVCRGHNFCAEGPKCGENSECKNWNTKATCECKSGYISVQGDSAYCEDIDECAAKMHYCHANTVCVNLPGLYRCDCVPGYIRVDDFSCTEHDECGSGQHNCDENAICTNTVQGHSCTCKPGYVGNGTICRAFCEEGCRYGGTCVAPNKCVCPSGFTGSHCEKDIDECSEGIIECHNHSRCVNLPGWYHCECRSGFHDDGTYSLSGESCIDIDECALRTHTCWNDSACINLAGGFDCLCPSGPSCSGDCPHEGGLKHNGQVWTLKEDRCSVCSCKDGKIFCRRTACDCQNPSADLFCCPECDTRVTSQCLDQNGHKLYRSGDNWTHSCQQCRCLEGEVDCWPLTCPNLSCEYTAILEGECCPRCVSDPCLADNITYDIRKTCLDSYGVSRLSGSVWTMAGSPCTTCKCKNGRVCCSVDFECLQNN
modifications: PEG
ectopic bone formation, radiographically or on organ retrieval analysis [7]: no evidence of ectopic bone formation | fracture healing [7]: enhance fracture healing | toxicology testing [7]: no abnormalities detected on toxicology testing
